In one assay the target is ROCK1 (Homo sapiens (Human), UniProt Q13464). Kind of assay: ROCK assay (Caliper LABCHIP peptide phosphorylation), ROCK1.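 Also: Read-out is separation of phosphorylated from unphosphorylated peptide, with kinase activity inhibition computed at every concentration of a dose-response series.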 The following applies: 5 μM ATP, 1.5 μM peptide substrate. It counts as biochemical.
For the next assay, the target named is ROCK2 (Homo sapiens (Human), UniProt O75116). Kind of assay: ROCK assay (Caliper LABCHIP peptide phosphorylation), ROCK2.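 Also: reaction stopped with EDTA, then phosphorylated and unphosphorylated peptide resolved by microfluidic electrophoresis, kinase inhibition computed at each compound concentration in dose-response series, DMSO under 2%.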 The note with it: 5 μM ATP, 1.5 μM peptide substrate. It counts as biochemical.

The values that follow come from patent US9458110B2, “Phenylpyrazole derivatives as potent ROCK1 and ROCK2 inhibitors” (BRISTOL-MYERS SQUIBB COMPANY, priority 2013, dated 2016).

The structures appear in SMILES notation.

One may read the IC50 as the point on the concentration scale where inhibition reaches its midpoint. Lower therefore signals higher potency.

Chain of ROCK2 (O75116 whole entry, species assumed): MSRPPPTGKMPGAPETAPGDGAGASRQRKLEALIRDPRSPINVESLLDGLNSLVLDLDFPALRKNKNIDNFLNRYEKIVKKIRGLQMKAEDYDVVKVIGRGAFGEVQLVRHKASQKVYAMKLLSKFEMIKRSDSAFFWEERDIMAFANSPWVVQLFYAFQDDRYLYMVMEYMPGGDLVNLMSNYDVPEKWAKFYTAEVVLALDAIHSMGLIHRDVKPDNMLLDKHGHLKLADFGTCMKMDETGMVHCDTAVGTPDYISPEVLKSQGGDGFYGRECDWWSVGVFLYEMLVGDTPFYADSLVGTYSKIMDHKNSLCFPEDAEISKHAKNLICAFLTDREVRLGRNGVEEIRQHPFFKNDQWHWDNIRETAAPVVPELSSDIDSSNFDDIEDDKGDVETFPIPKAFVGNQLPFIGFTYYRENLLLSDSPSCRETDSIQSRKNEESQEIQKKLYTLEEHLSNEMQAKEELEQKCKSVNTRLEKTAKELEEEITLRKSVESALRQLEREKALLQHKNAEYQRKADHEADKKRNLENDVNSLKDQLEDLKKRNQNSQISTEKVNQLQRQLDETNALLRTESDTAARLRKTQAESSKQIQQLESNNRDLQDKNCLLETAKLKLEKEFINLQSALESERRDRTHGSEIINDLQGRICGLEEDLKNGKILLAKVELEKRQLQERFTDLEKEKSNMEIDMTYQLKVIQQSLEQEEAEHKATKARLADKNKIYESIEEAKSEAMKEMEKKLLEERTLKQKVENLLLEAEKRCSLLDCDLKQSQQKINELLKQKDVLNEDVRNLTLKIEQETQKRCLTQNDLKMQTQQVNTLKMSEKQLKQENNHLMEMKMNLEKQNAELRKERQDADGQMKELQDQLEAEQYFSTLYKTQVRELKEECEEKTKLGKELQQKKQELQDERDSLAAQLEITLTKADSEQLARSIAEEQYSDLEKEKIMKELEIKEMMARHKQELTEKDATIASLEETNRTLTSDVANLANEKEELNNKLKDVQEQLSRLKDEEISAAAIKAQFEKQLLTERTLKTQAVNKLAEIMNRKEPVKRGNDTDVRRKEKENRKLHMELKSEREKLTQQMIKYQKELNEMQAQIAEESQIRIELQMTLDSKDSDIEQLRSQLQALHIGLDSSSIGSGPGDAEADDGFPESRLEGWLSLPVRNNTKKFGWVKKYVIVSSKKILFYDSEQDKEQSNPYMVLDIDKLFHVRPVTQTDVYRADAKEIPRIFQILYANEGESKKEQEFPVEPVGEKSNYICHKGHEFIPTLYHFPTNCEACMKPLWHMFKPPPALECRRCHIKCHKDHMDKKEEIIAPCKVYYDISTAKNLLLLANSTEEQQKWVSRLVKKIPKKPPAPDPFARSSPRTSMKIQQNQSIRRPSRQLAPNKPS
Chain of ROCK1 (Q13464 whole entry, species assumed): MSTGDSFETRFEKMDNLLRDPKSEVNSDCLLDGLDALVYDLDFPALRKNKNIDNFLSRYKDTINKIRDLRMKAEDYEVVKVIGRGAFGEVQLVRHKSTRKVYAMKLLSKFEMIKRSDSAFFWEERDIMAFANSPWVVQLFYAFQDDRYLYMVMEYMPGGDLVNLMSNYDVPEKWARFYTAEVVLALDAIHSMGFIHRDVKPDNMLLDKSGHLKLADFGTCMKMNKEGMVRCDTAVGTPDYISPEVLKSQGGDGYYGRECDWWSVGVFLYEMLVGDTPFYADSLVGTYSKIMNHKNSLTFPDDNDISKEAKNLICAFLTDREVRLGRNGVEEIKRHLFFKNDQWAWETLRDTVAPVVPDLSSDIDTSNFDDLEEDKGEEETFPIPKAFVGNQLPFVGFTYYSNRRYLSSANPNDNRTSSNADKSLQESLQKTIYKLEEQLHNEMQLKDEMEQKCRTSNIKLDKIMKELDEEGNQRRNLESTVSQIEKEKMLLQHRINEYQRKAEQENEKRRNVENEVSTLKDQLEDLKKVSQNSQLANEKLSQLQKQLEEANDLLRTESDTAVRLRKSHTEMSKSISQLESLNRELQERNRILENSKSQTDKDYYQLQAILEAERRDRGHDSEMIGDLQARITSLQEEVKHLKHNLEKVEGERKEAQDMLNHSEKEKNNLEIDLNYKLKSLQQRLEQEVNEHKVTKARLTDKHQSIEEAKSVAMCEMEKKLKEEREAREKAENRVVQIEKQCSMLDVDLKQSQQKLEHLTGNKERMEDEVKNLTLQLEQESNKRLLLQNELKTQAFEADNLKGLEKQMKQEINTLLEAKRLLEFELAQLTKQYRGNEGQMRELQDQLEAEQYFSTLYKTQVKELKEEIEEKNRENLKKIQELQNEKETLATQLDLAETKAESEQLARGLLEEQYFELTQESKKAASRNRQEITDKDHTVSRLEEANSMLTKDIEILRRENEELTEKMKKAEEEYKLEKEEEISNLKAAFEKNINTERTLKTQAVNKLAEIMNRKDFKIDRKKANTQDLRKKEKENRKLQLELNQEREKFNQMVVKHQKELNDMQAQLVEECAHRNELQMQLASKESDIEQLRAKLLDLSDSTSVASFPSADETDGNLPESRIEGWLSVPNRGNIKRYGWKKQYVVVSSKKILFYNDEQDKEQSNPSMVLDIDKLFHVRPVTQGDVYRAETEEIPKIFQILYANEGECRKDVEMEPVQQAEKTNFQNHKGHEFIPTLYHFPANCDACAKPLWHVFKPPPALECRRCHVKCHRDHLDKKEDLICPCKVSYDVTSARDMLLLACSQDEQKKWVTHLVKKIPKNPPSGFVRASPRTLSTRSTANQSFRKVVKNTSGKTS

Regarding `COc1cc(C(=O)NCc2cccc(CN(C)C)c2)ccc1-c1cn[nH]c1` [Example 85, N-({3-[(dimethylamino)methyl]phenyl}methyl)-3-methoxy-4-(1H-pyrazol-4-yl)benzamide], the IC50 was 2.51 µM against ROCK1 and 0.474 µM at ROCK2.
Regarding `CC(O)c1cc(C(=O)NCc2c(F)cccc2Cl)ccc1-c1cn[nH]c1` (stereo not drawn) [Example 290, N-[(2-chloro-6-fluorophenyl)methyl]-3-(1-hydroxyethyl)-4-(1H-pyrazol-4-yl)benzamide], the IC50 against ROCK1 is 1.95 µM; against ROCK2, 1.76 µM.
For `COc1cc(C(=O)N[C@@H](C)c2ccccc2Cl)ccc1-c1cn[nH]c1` [Example 44, (S)-N-(1-(2-chlorophenyl)ethyl)-3-methoxy-4-(1H-pyrazol-4-yl)benzamide], the IC50 on ROCK1 was determined as 0.0961 µM; against ROCK2 it was 0.0525 µM.
Take `COc1cc(C(=O)NC[C@@H](O)c2cccc(Cl)c2)ccc1-c1cn[nH]c1` [Example 127, N-[(2S)-2-(3-chlorophenyl)-2-hydroxyethyl]-3-methoxy-4-(1H-pyrazol-4-yl)benzamide]: the IC50 against ROCK1 stood at 0.0234 µM; on ROCK2, 0.0321 µM.
With `COc1cc(-c2cn[nH]c2)ccc1C(=O)NCc1cccc(S(N)(=O)=O)c1` [Example 230, 2-methoxy-4-(1H-pyrazol-4-yl)-N-[(3-sulfamoyl-phenyl)methyl] benzamide], the IC50 against ROCK1 was determined as 0.0112 µM; against ROCK2 it was 0.00186 µM.
The corresponding values for `COc1cc(C(=O)NC(CN2CCOCC2)c2ccccc2)ccc1-c1cn[nH]c1` (stereo not drawn) [Example 10, 3-methoxy-N-(2-morpholino-1-phenylethyl)-4-(1H-pyrazol-4-yl)benzamide] are 0.107 µM and 0.0445 µM.
Turning to `COc1cc(-c2c[nH]nc2C)ccc1C(=O)NCc1c(F)cccc1Cl` [Example 184, N-[(2-chloro-6-fluorophenyl)methyl]-2-methoxy-4-(3-methyl-1H-pyrazol-4-yl)benzamide], the results for the IC50 on ROCK1 and at ROCK2 were 0.0142 µM and 0.101 µM, respectively.
Turning to `COc1cc(C(=O)NCc2cccc(Cl)c2Cl)ccc1-c1cn[nH]c1` [Example 29, N-(2,3-dichlorobenzyl)-3-methoxy-4-(1H-pyrazol-4-yl)benzamide], the IC50 on ROCK1 stood at 0.00577 µM; at ROCK2 it was 0.00253 µM.
`COc1cc(C(=O)N(C)Cc2ccccc2)ccc1-c1cn[nH]c1` [Example 71, N-benzyl-3-methoxy-N-methyl-4-(1H-pyrazol-4-yl)benzamide]: the figures for the IC50 on ROCK1 and against ROCK2 were 1.34 µM and 0.494 µM, respectively.
The corresponding values for `COc1cc(C(=O)NCc2ccc(C#N)cc2)ccc1-c1cn[nH]c1` [Example 143, N-[(4-cyanophenyl)methyl]-3-methoxy-4-(1H-pyrazol-4-yl)benzamide] are 0.365 µM and 0.0825 µM.
`CC(O)c1cc(C(=O)NC(C)c2ccccc2F)ccc1-c1cn[nH]c1` (stereo not drawn) [Example 279, N-[1-(2-fluorophenyl)ethyl]-3-(1-hydroxyethyl)-4-(1H-pyrazol-4-yl)benzamide]: the half-inhibitory concentration (IC50) at ROCK1 stood at 0.0529 µM; against ROCK2 it was 0.0157 µM.
As to `CC(O)c1cc(C(=O)NC(C)c2c(F)cccc2F)ccc1-c1cn[nH]c1` (stereo not drawn) [Example 288, N-[1-(2,6-difluorophenyl)ethyl]-3-(1-hydroxyethyl)-4-(1H-pyrazol-4-yl)benzamide], the IC50 against ROCK1 was 0.15 µM; against ROCK2, 0.446 µM.
With `COc1cc(C(=O)NCc2ccc3c(c2)OCO3)ccc1-c1cn[nH]c1` [Example 38, N-(benzo[d] [1,3]dioxol-5-ylmethyl)-3-methoxy-4-(1H-pyrazol-4-yl)benzamide], the IC50 was 0.0348 µM against ROCK1 and 0.0142 µM on ROCK2.
As to `COc1cccc([C@@H](C)NC(=O)c2ccc(-c3cn[nH]c3)cc2F)c1` [Example 62, (R)-2-Fluoro-N-(1-(3-methoxyphenyl)ethyl)-4-(1H-pyrazol-4-yl)benzamide], the half-inhibitory concentration (IC50) on ROCK1 stood at 0.0433 µM; against ROCK2, 0.00887 µM.
The corresponding values for `COc1cc(C(=O)NCCc2cccc(O)c2)ccc1-c1cn[nH]c1` [Example 124, N-[2-(3-hydroxyphenyl)ethyl]-3-methoxy-4-(1H-pyrazol-4-yl)benzamide] are 0.0215 µM and 0.007 µM.
On to `O=C(N[C@H](CO)c1c(F)cccc1F)c1ccc(-c2cn[nH]c2)c(C(F)(F)F)c1` [Example 202, N-[(1S)-1-(2,6-difluorophenyl)-2-hydroxyethyl]-4-(1H-pyrazol-4-yl)-3-(trifluoromethyl) benzamide], for which the half-maximal inhibitory concentration (IC50) on ROCK1 is 0.193 µM; on ROCK2, 0.0557 µM.
`COc1cc(C(=O)NCCc2ccccc2Cl)ccc1-c1cn[nH]c1` [Example 35, N-(2-chloro-phenethyl)-3-methoxy-4-(1H-pyrazol-4-yl)benzamide]: the IC50 was 0.0165 µM on ROCK1 and 0.0066 µM on ROCK2.
Regarding `COc1cccc(C(C)NC(=O)c2ccc(-c3cn[nH]c3)c(OC)c2)n1` (stereo not drawn) [Example 135, 3-methoxy-N-[1-(6-methoxypyridin-2-yl)ethyl]-4-(1H-pyrazol-4-yl)benzamide], the results for the 50% inhibitory concentration (IC50) at ROCK1 and at ROCK2 were 0.0734 µM and 0.0169 µM, respectively.
For the compound `COc1ccc(F)c(CNC(=O)c2ccc(-c3cn[nH]c3)c(C)c2)c1` [Example 148, N-[(2-fluoro-5-methoxyphenyl)methyl]-3-methyl-4-(1H-pyrazol-4-yl)benzamide], the IC50 against ROCK1 worked out at 0.174 µM; on ROCK2 it was 0.0512 µM.
As to `COc1cc(C(=O)N[C@H](C)c2ccccc2)ccc1-c1cn[nH]c1` [Example 72, (R)-3-methoxy-N-(1-phenylethyl)-4-(1H-pyrazol-4-yl)benzamide], the IC50 was found to be 0.00591 µM at ROCK1 and 0.00148 µM against ROCK2.
In the case of `COc1cc(C(=O)NCc2ccc(Cl)cc2Cl)ccc1-c1cn[nH]c1` [Example 93, N-[(2,4-dichlorophenyl)methyl]-3-methoxy-4-(1H-pyrazol-4-yl)benzamide], the values for the 50% inhibitory concentration (IC50) against ROCK1 and on ROCK2 were 0.0993 µM and 0.0276 µM, respectively.
`COc1ccc(F)c(C(C)NC(=O)c2ccc(-c3cn[nH]c3)cc2OC)c1` (stereo not drawn) [Example 203, N-[1-(2-fluoro-5-methoxyphenyl)ethyl]-2-methoxy-4-(1H-pyrazol-4-yl)benzamide]: the IC50 at ROCK1 stood at 0.0192 µM; on ROCK2, 0.00666 µM.
The corresponding values for `COc1cc(C(=O)NCc2cccc(N(C)C)c2)ccc1-c1cn[nH]c1` [Example 95, N-{[3-(dimethylamino)phenyl]methyl}-3-methoxy-4-(1H-pyrazol-4-yl)benzamide] are 0.371 µM and 0.0476 µM.
The like results for `COc1cccc([C@@H](C)NC(=O)c2ccc(-c3c[nH]nc3CO)cc2OC)c1` [Example 306, (R)-4-(3-(Hydroxymethyl)-1H-pyrazol-4-yl)-2-methoxy-N-(1-(3-methoxyphenyl)ethyl)benzamide] were, in that order, 0.0638 µM and 0.0435 µM.
Take `COc1cc(C(=O)NCc2cccnc2)ccc1-c1cn[nH]c1` [Example 19, 3-methoxy-4-(1H-pyrazol-4-yl)-N-(pyridin-3-ylmethyl) benzamide]: the IC50 against ROCK1 stood at 0.104 µM; at ROCK2, 0.0238 µM.
Take `COc1ccc(F)c(C(C)NC(=O)c2ccc(-c3cn[nH]c3)c(OC)c2)c1` (stereo not drawn) [Example 139, N-[1-(2-fluoro-5-methoxy-phenyl)ethyl]-3-methoxy-4-(1H-pyrazol-4-yl)benzamide]: the results for the 50% inhibitory concentration (IC50) at ROCK1 and against ROCK2 were 0.172 µM and 0.0472 µM, respectively.
As for `CC(O)c1cc(C(=O)NCc2c(F)cccc2Cl)ccc1-c1cn[nH]c1` (stereo not drawn) [Example 291, N-[(2-chloro-6-fluorophenyl)methyl]-3-(1-hydroxyethyl)-4-(1H-pyrazol-4-yl)benzamide], the 50% inhibitory concentration (IC50) was found to be 0.138 µM at ROCK1 and 0.104 µM against ROCK2.
Take `COc1cc(C(=O)NC(C)c2cccc(O)n2)ccc1-c1cn[nH]c1` (stereo not drawn) [Example 159, N-[1-(6-hydroxypyridin-2-yl)ethyl]-3-methoxy-4-(1H-pyrazol-4-yl)benzamide]: the IC50 against ROCK1 came out at 0.00739 µM; against ROCK2 it was 0.00676 µM.
With `CC(NC(=O)c1ccc(-c2cn[nH]c2)c(C=O)c1)c1ccccc1F` (stereo not drawn) [Example 276, N-[1-(2-fluorophenyl)ethyl]-3-formyl-4-(1H-pyrazol-4-yl)benzamide], the IC50 on ROCK1 was determined as 0.509 µM; against ROCK2, 0.409 µM.
As to `COc1cc(C(=O)NCc2ccccc2C(C)C)ccc1-c1cn[nH]c1` [Example 267, 3-Methoxy-N-{[2-(propan-2-yl)phenyl]methyl}-4-(1H-pyrazol-4-yl)benzamide], the IC50 at ROCK1 was found to be 0.204 µM; on ROCK2, 0.104 µM.
The corresponding values for `COc1cc(-c2cn[nH]c2)c(F)cc1C(=O)N[C@H](C)c1ccccc1` [Example 190, 5-fluoro-2-methoxy-N-[(1R)-1-phenylethyl]-4-(1H-pyrazol-4-yl)benzamide] are 0.0371 µM and 0.0167 µM.
With `COc1cc(C(=O)NCc2ccc3nc(N)sc3c2)ccc1-c1cn[nH]c1` [Example 77, N-((2-aminobenzo[d]thiazol-6-yl)methyl)-3-methoxy-4-(1H-pyrazol-4-yl)benzamide], the IC50 was found to be 1.24 µM against ROCK1 and 0.401 µM on ROCK2.
For the compound `COc1cc(C(=O)NCc2ccccc2)ccc1-c1cn[nH]c1` [Example 27, N-benzyl-3-methoxy-4-(1H-pyrazol-4-yl) benzamide], the IC50 on ROCK1 worked out at 0.0128 µM; against ROCK2, 0.0026 µM.
`COc1ccc(F)c(C(C)NC(=O)c2ccc(-c3c[nH]nc3C)cc2OC)c1` (stereo not drawn) [Example 152, N-[1-(2-fluoro-5-methoxyphenyl)ethyl]-2-methoxy-4-(3-methyl-1H-pyrazol-4-yl)benzamide]: the IC50 came to 1.51 µM against ROCK1 and 0.627 µM against ROCK2.
The like results for `Nc1cc(-c2cn[nH]c2)ccc1C(=O)NCCCc1ccccc1` [Example 220, 2-amino-N-(3-phenylpropyl)-4-(1H-pyrazol-4-yl)benzamide] were, in that order, 0.321 µM and 0.201 µM.
Turning to `COc1cc(C(=O)NCCc2cccc(C(F)(F)F)c2)ccc1-c1cn[nH]c1` [Example 120, 3-methoxy-4-(1H-pyrazol-4-yl)-N-{2-[3-(trifluoro-methyl)phenyl]ethyl} benzamide], the IC50 at ROCK1 was found to be 0.0946 µM; against ROCK2 it was 0.052 µM.
